The source of these data is patent US11052092B2, “N-{[2-(piperidin-1-yl)phenyl](phenyl)methyl}-2-(3-oxo-3,4-dihydro-2H-1,4-benzoxazin-7-yl)acetamide derivatives and related compounds as ROR-gamma modulators for treating autoimmune diseases” (Genfit, priority 2017, dated 2021).

Molecules are shown by their SMILES. Where only a bound is given, the exact number is not on record here.

One assay deals with T1, human RORγt (Homo sapiens, UniProt P51449).
T1 construct: the full-length cDNA of human RORγt; expressed in transfected cells; host or cells: COS-7 (monkey kidney)
T1 sequence (P51449 1-497 isoform P51449-2): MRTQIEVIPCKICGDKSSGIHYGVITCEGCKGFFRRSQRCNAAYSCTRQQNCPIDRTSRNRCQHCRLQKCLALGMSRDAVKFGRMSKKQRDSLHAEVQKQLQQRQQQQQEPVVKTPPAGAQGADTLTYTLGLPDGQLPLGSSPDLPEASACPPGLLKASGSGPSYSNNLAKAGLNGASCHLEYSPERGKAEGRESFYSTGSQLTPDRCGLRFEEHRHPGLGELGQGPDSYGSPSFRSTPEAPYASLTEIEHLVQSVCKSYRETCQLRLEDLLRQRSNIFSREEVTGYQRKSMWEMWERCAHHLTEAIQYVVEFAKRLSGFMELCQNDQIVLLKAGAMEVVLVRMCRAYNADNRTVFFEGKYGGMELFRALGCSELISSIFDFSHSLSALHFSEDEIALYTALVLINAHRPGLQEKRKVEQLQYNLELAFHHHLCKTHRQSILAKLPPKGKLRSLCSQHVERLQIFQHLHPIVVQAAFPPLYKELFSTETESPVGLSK
Nature of the assay: RORE Luciferase/RORγt transactivation assay. Particulars: COS-7 cells transfected with human IL-17 promoter luciferase reporter and RORγt plasmid; 20 h with compound; read-out: IC50, RORγt activity inhibition. It counts as cell-based. A digest of the protocol:
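COS-7 cells were transiently co-transfected with a human IL-17 promoter (RORE/CNS)–luciferase reporter and a RORγt expression plasmid, then seeded at 10000 cells/well in serum-free, phenol red-free DMEM. Compounds were added at 0.3% DMSO final. Luciferase was read with Steady-Glo, and IC50 and Emax were derived.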

The target in assay [1] is T2, RORγt ligand-binding domain (RORγt-LBD) (Homo sapiens, UniProt P51449).
T2 construct: 20 nM recombinantly expressed RORγ-LBD fused to GST
T2 sequence (P51449 269-508 limits assumed): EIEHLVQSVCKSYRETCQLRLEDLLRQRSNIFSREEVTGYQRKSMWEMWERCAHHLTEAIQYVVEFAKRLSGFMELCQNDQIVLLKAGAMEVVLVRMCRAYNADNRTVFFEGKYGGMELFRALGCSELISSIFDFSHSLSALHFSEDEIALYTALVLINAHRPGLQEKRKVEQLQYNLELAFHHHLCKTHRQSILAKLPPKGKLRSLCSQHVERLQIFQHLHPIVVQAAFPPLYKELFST
Nature of the assay: Time-resolved FRET (TR-FRET) RORγt coactivator assay. Conditions: GST-RORγ-LBD, biotinylated RIP140 peptide, 2 hours at room temperature. The text has this: Time-resolved FRET (TR-FRET) RORγt coactivator assay was used to identify RORγ modulator compounds with ligand-dependent coactivator displacement. The assay uses a d2-labeled anti-GST antibody, synthetic N-terminally biotinylated peptide which is derived from nuclear receptor coactivator protein RIP140, and a RORγt ligand-binding domain (RORγt-LBD) that is tagged with glutathione-S-transferase (GST). The influence of compounds on the RORγ-peptide interaction relies on the binding dependent energy transfer from a donor to an acceptor fluorophor attached to the binding partner of interest. […] For reduction of background from compound fluorescence, TR-FRET method makes use of generic fluorophore labels and time resolved detection.
The assays were done in a final volume of 20 μl in a 384 well plate in a CHAPS buffer (2 mM CHAPS; 1 mM DTT, 2 mM EDTA; 0.1% BSA), containing 20 nM recombinantly expressed RORγ-LBD fused to GST, 30 nM N-terminally biotinylated peptide, 1 nM streptavidin-terbium conjugate and 20 nM d2 labeled-anti-GST. Test compounds were diluted using 10 mM stock solution. The range of the final compound concentrations used in this test was from 0.3 nM to 30 μM (logarithmic scale). DMSO content of the samples was kept at 1%. The assay was equilibrated for 2 hours in the dark at room temperature in 384 well plates (Falcon). The signal was detected by an Ultra384 reader (TECAN). […] Compounds that promote coactivator displacement induce a concentration-dependent decrease in time-resolved fluorescent signal. Data were collected and analyzed using GraphPad Prism software (GraphPad Software V5.02, San Diego Calif. USA). IC50 in μM and Emax in % were reported for each compound.
(In general: TR-FRET usually uses a lanthanide donor and a delayed reading to cut background.)

Turning to `O=C1COc2cc(CC(=O)NC(c3ccccc3)c3ccccc3N3CCOCC3)ccc2N1` (stereo not drawn) [Cpd. 7, N-{[2-(morpholin-4-yl)phenyl](phenyl)methyl}-2-(3-oxo-3,4-dihydro-2H-1,4-benzoxazin-7-yl)acetamide], the results for the IC50 (at human RORγt; in assay [1]) were greater than 10000 nM and 100 to 1000 nM, respectively.

Regarding `Cc1ccc(C(NC(=O)Cc2ccc3[nH]c(=O)cc(C)c3c2)c2ccccc2)c(N2CCOCC2)c1` (stereo not drawn) [Cpd. 8, N-{[4-methyl-2-(morpholin-4-yl)phenyl](phenyl)methyl}-2-(4-methyl-2-oxo-1,2-dihydroquinolin-6-yl)acetamide], the half-maximal inhibitory concentration (IC50) (as a rule, the concentration that inhibits the measured activity by half) in assay [1] fell in the range of 100 to 1000 nM.

Consider `Cc1ccc(C(NC(=O)Cc2ccc3[nH]c(=O)cc(C)c3c2)c2ccccc2)c(C)c1` (stereo not drawn) [Cpd. 9, N-[(2,4-dimethylphenyl)(phenyl)methyl]-2-(4-methyl-2-oxo-1,2-dihydroquinolin-6-yl)acetamide], for which the IC50 is 1000 to 10000 nM on human RORγt and 10 to 100 nM in assay [1].

Regarding `O=C(Cc1ccc2[nH]c(=O)c(=O)[nH]c2c1)NC(c1ccccc1)c1ccccc1N1CCCCC1` (stereo not drawn) [Cpd. 12, 2-(2,3-dioxo-1,2,3,4-tetrahydroquinoxalin-6-yl)-N-{phenyl[2-(piperidin-1-yl)phenyl]methyl}acetamide], the half-inhibitory concentration (IC50) in assay [1] was 1000 to 10000 nM.

Regarding `O=C1Cc2cc(CC(=O)NC(c3ccccc3)c3ccccc3N3CCCCC3)ccc2N1` (stereo not drawn) [Cpd. 15, 2-(2-oxo-2,3-dihydro-1H-indol-5-yl)-N-{phenyl[2-(piperidin-1-yl)phenyl]methyl}acetamide], the IC50 lay within 1000 to 10000 nM at human RORγt and 10 to 100 nM in assay [1].

With `Cc1ccc(C(NC(=O)Cc2ccc3c(c2)CC(=O)N3)c2ccccc2)c(N2CCOCC2)c1` (stereo not drawn) [Cpd. 18, N-{[4-methyl-2-(morpholin-4-yl)phenyl](phenyl)methyl}-2-(2-oxo-2,3-dihydro-1H-indol-5-yl)acetamide], the values for the IC50 (at human RORγt; in assay [1]) were 1000 to 10000 nM and 100 to 1000 nM, respectively.

The molecule `CC1(C)Oc2cc(CC(=O)NC(c3ccccc3)c3ccccc3N3CCCCC3)ccc2NC1=O` (stereo not drawn) [Cpd. 19, 2-(2,2-dimethyl-3-oxo-3,4-dihydro-2H-1,4-benzoxazin-7-yl)-N-{phenyl[2-(piperidin-1-yl)phenyl]methyl}acetamide] registered a concentration for half-maximal inhibition (IC50) in assay [1] of 1000 to 10000 nM.

Turning to `O=C(Cc1ccc2c(c1)C(=O)C(=O)N2)NC(c1ccccc1)c1ccccc1N1CCCCC1` (stereo not drawn) [Cpd. 20, 2-(2,3-dioxo-2,3-dihydro-1H-indol-5-yl)-N-{phenyl[2-(piperidin-1-yl)phenyl]methyl}acetamide], the half-inhibitory concentration (IC50) (at human RORγt; in assay [1]) was 1000 to 10000 nM throughout.

`Cc1ccc(C(NC(=O)Cc2ccc3c(c2)OC(C)(C)C(=O)N3)c2ccccc2)c(N2CCOCC2)c1` (stereo not drawn) [Cpd. 21, 2-(2,2-dimethyl-3-oxo-3,4-dihydro-2H-1,4-benzoxazin-7-yl)-N-{[4-methyl-2-(morpholin-4-yl)phenyl](phenyl)methyl}acetamide]: the half-maximal inhibitory concentration (IC50) (on human RORγt; in assay [1]) was 100 to 1000 nM each time.

With `COc1ccc(C(NC(=O)Cc2ccc3c(c2)C(=O)C(=O)N3)c2ccccc2)c(N2CCCCC2)c1` (stereo not drawn) [Cpd. 22, 2-(2,3-dioxo-2,3-dihydro-1H-indol-5-yl)-N-{[4-methoxy-2-(piperidin-1-yl)phenyl](phenyl)methyl}acetamide], the half-inhibitory concentration (IC50) on human RORγt was in the range of 1000 to 10000 nM; in assay [1], 100 to 1000 nM.

Take `O=C(Cc1ccc2c(c1)CS(=O)(=O)N2)NC(c1ccccc1)c1ccccc1N1CCCCC1` (stereo not drawn) [Cpd. 26, 2-(2,2-dioxo-1,3-dihydro-2,1-benzothiazol-5-yl)-N-{phenyl[2-(piperidin-1-yl)phenyl]methyl}acetamide]: the IC50 on human RORγt was in the range of 1000 to 10000 nM; in assay [1], 10 to 100 nM.

As to `COc1ccc(C(NC(=O)Cc2ccc3c(c2)OC(C)(C)C(=O)N3)c2ccc(C)o2)c(N2CCOCC2)c1` (stereo not drawn) [Cpd. 30, 2-(2,2-dimethyl-3-oxo-3,4-dihydro-2H-1,4-benzoxazin-7-yl)-N-{[4-methoxy-2-(morpholin-4-yl)phenyl](5-methylfuran-2-yl)methyl}acetamide], the IC50 on human RORγt was in the range of 1000 to 10000 nM; in assay [1], 100 to 1000 nM.

Consider `CCc1ccc(C(NC(=O)Cc2ccc3c(c2)OCC(=O)N3)c2ccc(C)cc2C)o1` (stereo not drawn) [Cpd. 32, N-[(2,4-dimethylphenyl)(5-ethylfuran-2-yl)methyl]-2-(3-oxo-3,4-dihydro-2H-1,4-benzoxazin-7-yl)acetamide], for which the IC50 on human RORγt lay in the range of 100 to 1000 nM; in assay [1], 1000 to 10000 nM.

Regarding `COc1ccc(C(NC(=O)Cc2ccc3c(c2)OCC(=O)N3)c2ccc(C)o2)c(Br)c1` (stereo not drawn) [Cpd. 34, N-[(2-bromo-4-methoxyphenyl)(5-methylfuran-2-yl)methyl]-2-(3-oxo-3,4-dihydro-2H-1,4-benzoxazin-7-yl)acetamide], the IC50 (at human RORγt; in assay [1]) was 100 to 1000 nM throughout.

As to `Cc1ccc(C(NC(=O)Cc2ccc3c(c2)C(C)(C)C(=O)N3C)c2ccc(C)o2)c(N2CCCCC2)c1` (stereo not drawn) [Cpd. 40, N-{[4-methyl-2-(piperidin-1-yl)phenyl](5-methylfuran-2-yl)methyl}-2-(1,3,3-trimethyl-2-oxo-2,3-dihydro-1H-indol-5-yl)acetamide], the 50% inhibitory concentration (IC50) (on human RORγt; in assay [1]) was 100 to 1000 nM in each case.

As for `Cc1ccc(C(NC(=O)Cc2ccc3c(c2)C(=Cc2c(C)noc2C)C(=O)N3)c2ccc(C)o2)c(N2CCCCC2)c1` (stereo not drawn) [Cpd. 43, 2-{3-[(dimethyl-1,2-oxazol-4-yl)methylidene]-2-oxo-2,3-dihydro-1H-indol-5-yl}-N-{[4-methyl-2-(piperidin-1-yl)phenyl](5-methylfuran-2-yl)methyl}acetamide], the IC50 (on human RORγt; in assay [1]) was 100 to 1000 nM throughout.

Regarding `Cc1ccc(C(NC(=O)Cc2ccc3c(c2)C(=O)C(=O)N3C)c2ccc(C)o2)c(N2CCCCC2)c1` (stereo not drawn) [Cpd. 45, 2-(1-methyl-2,3-dioxo-2,3-dihydro-1H-indol-5-yl)-N-{[4-methyl-2-(piperidin-1-yl)phenyl](5-methylfuran-2-yl)methyl}acetamide], the IC50 (on human RORγt; in assay [1]) was 100 to 1000 nM in each case.

In the case of `Cc1ccc(C(NC(=O)Cc2cccc3c2CN(S(C)(=O)=O)C3)c2ccc(C)o2)c(N2CCCCC2)c1` (stereo not drawn) [Cpd. 50, 2-(2-methanesulfonyl-2,3-dihydro-1H-isoindol-4-yl)-N-{[4-methyl-2-(piperidin-1-yl)phenyl](5-methylfuran-2-yl)methyl}acetamide], the values for the IC50 (at human RORγt; in assay [1]) were 100 to 1000 nM and 1000 to 10000 nM, respectively.

Regarding `Cc1ccc(C(NC(=O)C2(c3ccc4c(c3)CS(=O)(=O)N4)CC2)c2ccc(C)o2)c(C)c1` (stereo not drawn) [Cpd. 63, N-[(2,4-dimethylphenyl)(5-methylfuran-2-yl)methyl]-1-(2,2-dioxo-1,3-dihydro-2,1-benzothiazol-5-yl)cyclopropane-1-carboxamide], the IC50 was 10 to 100 nM on human RORγt and less than 10 nM in assay [1].

Consider `Cc1ccc(C(NC(=O)Cc2ccc3c(ccn3CCC(=O)OC(C)(C)C)c2)c2ccc(C)o2)c(C)c1` (stereo not drawn) [Cpd. 99, tert-butyl 3-[5-({[(2,4-dimethylphenyl)(5-methylfuran-2-yl)methyl]carbamoyl}methyl)-1H-indol-1-yl]propanoate], for which the concentration for half-maximal inhibition (IC50) on human RORγt lay in the range of 100 to 1000 nM; in assay [1], 10 to 100 nM.

As for `Cc1ccc(C(NC(=O)Cc2ccc3c(ccn3CCC(=O)OC(C)(C)C)c2)c2ccc(C)o2)c(Br)c1` (stereo not drawn) [Cpd. 100, tert-butyl 3-[5-({[(2-bromo-4-methylphenyl)(5-methylfuran-2-yl)methyl]carbamoyl}methyl)-1H-indol-1-yl]propanoate], the IC50 (on human RORγt; in assay [1]) was 100 to 1000 nM in each case.
